The target of one test is T1, full-length HAQ STING (Homo sapiens, UniProt Q86WV6, G230A/H232R/R293Q/R71H).
T1 construct: made in house; host or cells: Trichoplusia ni (Hi-Five) insect cells, baculovirus; crude membrane preparation
The test can be described thus: 3H-cGAMP filtration binding assay (HAQ STING). The following applies: for EC50: competition with tritiated cGAMP ligand, HAQ STING membrane. From the text: The ability of compounds to bind STING is quantified by the ability to compete with tritiated cGAMP ligand for human STING receptor membrane using a radioactive filter-binding assay. The binding assay employs STING receptor obtained from Hi-Five cell membranes overexpressing full-length HAQ STING prepared in-house and tritiated cGAMP ligand also purified in-house.
The ability of compounds to bind STING is quantified by their ability to compete with tritiated cGAMP ligand for human STING receptor membrane using a radioactive filter-binding assay. The binding assay employs STING receptor obtained from Trichoplusia ni cell membranes (T. ni; Expression Systems, cat #94-002F, www.expressionsystems.com) overexpressing full-length HAQ STING and tritiated cGAMP ligand.
The basic HAQ STING filtration assay protocol is as follows:
The compounds were serially titrated by the Hamilton STARPlus CORE in a 96-well plate (Greiner, #651201) using a 1:3 ten-point dose response format. After compound preparation, a 2.2 ug/ml working concentration of STING membrane (SEQ. ID. No. 1) was prepared by diluting concentrated membrane into assay buffer (lx PBS; Invitrogen #SH30028.02) and douncing 7× using a manual tissue homogenizer (Wheaton, #357546). 148 uL of prepared membrane was then manually added to each well of a 96-well deep-well polypropylene plate (Fisher Scientific, #12-566-121). Following membrane addition, 2 uL of either titrated test compound, DMSO control (Sigma #276855), or cold cGAMP control was added to the appropriate wells using a BIOMEK FX. Compound and membrane then preincubated for 60 min at RT to allow compound binding to equilibrate. Following equilibration, 8 nM of [^3H] c-GAMP ligand was prepared by diluting into assay buffer, and 50 uL of this working stock was then manually added to each well of the assay plate. Plates were then incubated at RT for 60 min, and the contents of each assay plate were then filtered through a 96-well GF/B filter plate (PerkinElmer, #6005250) using a TOMTEC MACH III Cell Harvester equipped with 20 mM HEPES buffer (Fisher Scientific, #BP299500). The filter plates were then dried at 55° C. for 30 min using a pressurized oven before 30 uL of ULTIMA GOLD F scintillate was added to each well. Tritium levels for each reaction well were then measured using a PerkinElmer TopCount plate reader.
After normalization to controls, the percent activity for each compound concentration was calculated by measuring the amount of remaining radioactivity. The plot of percent activity versus the log of compound concentration was fit with a 4-parameter dose response equation to calculate EC50 values.

The test system of test [1] is IFN-β secretion in THP1 cells. The test can be described thus: IFN-β secretion in THP1 cell culture (5 h). Format: cell-based. The following applies: Homo sapiens, THP-1, 5 h, 30 μM compound, cGAMP at 30 μM set at 100%, read-out: % Effect at 30 μM relative to 2′3′-cGAMP. How it is done:
The ability of compounds to stimulate the secretion of interferon-beta from THP1 cells was measured using a human IFN-β AlphaLISA kit (Perkin Elmer, Cat. No. AL265F). The basic protocol is as follows:
A Labcyte Echo 550 acoustic dispenser was used to transfer 120 nL of compound dissolved in DMSO into the wells of an empty, sterile 384-well microplate, (Corning, Cat. No. 3712). THP1 cells (American Type Culture Collection, Cat. No. TIB202) previously frozen in Recovery Medium (Life Technologies, Cat. No. 12648-010) were thawed and immediately diluted 10-fold into 37° C. assay medium (RPMI 1640+L-Glutamine & phenol red, Life Technologies, Cat. No. 11875-085; 0.5% heat inactivated fetal bovine serum, Sigma Aldrich, Cat. No. F4135; 1 mM Sodium Pyruvate, Life Technologies, Cat. No. 11360-070; lx non-essential amino acids; Life Technologies, Cat. No. 11140-050). The cell viability and count was ascertained using a Beckman Coulter V-Cell XR cell counter. The cells suspension was centrifuged at 200×g for 5 min at RT. Cells were resuspended to a density of 0.8×10^6/mL in 37° C. assay medium. Subsequent liquid transfers were performed using either a Matrix electronic multichannel pipette or an Agilent Bravo Automated Liquid Handling Platform.
The assay was started by dispensing 404, of the previously prepared cell suspension into the wells of the plate containing compounds. After 5 h incubation at 37° C., 5% CO2 in a humidified atmosphere, the plate of cells and compounds was centrifuged at 200×g for 5 min at RT. From each well, 54, of supernatant was transferred into corresponding wells of a white 384-well plate (Perkin Elmer, Cat. No. 6005620). To these supernatant-containing wells was added 10 μL of 5× Anti-Analyte Acceptor beads (50 μg/mL of AlphaLISA HiBlock Buffer) and incubated for 30 min at RT while shaking on an orbital plate shaker. To each well was added 104, of 5× Biotinylated Antibody Anti-analyte (5 nM in AlphaLISA HiBlock Buffer) and incubated on an orbital plate shaker for 60 min at RT or overnight at 4° C. To each well was added 254, of 2× SA-Donor beads (80 μg/mL in AlphaLISA HiBlock Buffer) and incubated for 30-45 min at RT in the dark while shaking on an orbital plate shaker. The plate was then read on a Perkin Elmer Envision (λex=680 nm, λem=[…]). The percent effect of the AlphaLISA signal at each compound concentration was calculated based on 30 uM cGAMP positive controls and 0.3% DMSO negative controls. The plot of percent effect versus the log of compound concentration was fit with a 4-parameter concentration response equation to calculate EC50 values. The test compounds were tested at concentrations 30000, 10000, 3333, 1111, 370.4, 123.4, 41.2, 13.7, 4.6, and 1.5 nM with 0.3% residual DMSO. The control compound, cGAMP was tested at concentrations 100000, 33333, 11111, 3704, 1235, 412, 137, 46, and 15 nM with 0.3% residual DMSO.

The structures appear in SMILES notation.

T1 sequence (Q86WV6 with tags, fused parts or gaps R71H/G230A/H232R/R293Q): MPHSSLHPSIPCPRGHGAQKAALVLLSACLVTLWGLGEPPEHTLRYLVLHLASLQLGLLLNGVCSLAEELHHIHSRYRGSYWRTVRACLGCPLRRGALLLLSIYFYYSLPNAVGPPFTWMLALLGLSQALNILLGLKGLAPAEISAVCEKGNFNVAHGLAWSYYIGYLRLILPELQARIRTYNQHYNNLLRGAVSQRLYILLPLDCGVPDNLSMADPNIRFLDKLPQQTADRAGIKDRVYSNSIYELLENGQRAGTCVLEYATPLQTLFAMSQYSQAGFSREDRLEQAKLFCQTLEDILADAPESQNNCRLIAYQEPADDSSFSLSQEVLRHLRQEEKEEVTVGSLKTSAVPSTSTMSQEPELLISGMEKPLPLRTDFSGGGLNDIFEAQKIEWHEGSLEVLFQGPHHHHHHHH

As for `CCC(CC(=O)c1cc2nc(OC)c(OC)cc2s1)C(=O)O` (single isomer, unassigned) [Example 11, (R or S)-4-(5,6-Dimethoxythieno[3,2-b]pyridin-2-yl)-2-ethyl-4-oxobutanoic acid], the EC50 at full-length HAQ STING came to 17.3 µM.

On to `COc1nc2cc(C(=O)CCC(=O)O)sc2cc1Br` [Example 15, 4-(6-Bromo-5-methoxythieno[3,2-b]pyridin-2-yl)-4-oxobutanoic Acid], for which the activation at 30 µM in test [1] came out at 142%. The same compound came in with a concentration giving a half-maximal response (EC50) on full-length HAQ STING of 2.45 µM. In the case of `COc1cc2sc(C(=O)CC(C)C(=O)O)cc2nc1OC` (single isomer, unassigned) [Example 7, (R or S)-4-(5,6-Dimethoxythieno[3,2-b]pyridin-2-yl)-2-methyl-4-oxobutanoic acid], the activation at 30 µM in test [1] stood at 55%. On full-length HAQ STING, this compound returned an EC50 of 8.76 µM. For the compound `COc1cc2sc(C(=O)[C@H]3C[C@H]3C(=O)O)cc2nc1OC` (single isomer, unassigned) [Example 9, Cis-2-(5,6-dimethoxythieno[3,2-b]pyridine-2-carbonyl)cyclopropane-1-carboxylic Acid], the activation at 30 µM in test [1] amounted to 100%. The 50% effective concentration (EC50) on full-length HAQ STING was 1.15 µM. In the case of `COc1cc2sc(C(=O)CC(C)C(=O)O)cc2nc1OC` (single isomer, unassigned) [Example 8, (R or S)-4-(5,6-Dimethoxythieno[3,2-b]pyridin-2-yl)-2-methyl-4-oxobutanoic acid], at full-length HAQ STING, it took 1.54 µM to reach a half-maximal effect (EC50).

For `COc1nc2cc(C(=O)CCC(=O)O)sc2nc1OC` [Example 16, 4-(2,3-Dimethoxythieno[2,3-b]pyrazin-6-yl)-4-oxobutanoic Acid], in test [1], the activation at 30 µM stood at 108%. Also, a half-maximal response on full-length HAQ STING (EC50) required 9.57 µM. On to `COc1cc2sc(C(=O)C[C@H](C)C(=O)O)nc2nc1OC` [Example 19, (S)-4-(5,6-Dimethoxythiazolo[4,5-b]pyridin-2-yl)-2-methyl-4-oxobutanoic Acid], for which the activation at 30 µM in test [1] was 14%. Further, the concentration giving a half-maximal response (EC50) on full-length HAQ STING is 10.1 µM. In the same order, the values of `COc1nc2cc(C(=O)CC(C)C(=O)O)sc2nc1OC` (single isomer, unassigned) [Example 18, (R or S)-4-(2,3-Dimethoxythieno[2,3-b]pyrazin-6-yl)-2-methyl-4-oxobutanoic Acid] are 77% and 4.5 µM.

Turning to `CCC(CC(=O)c1cc2nc(OC)c(OC)nc2s1)C(=O)O` (single isomer, unassigned) [Example 17, (R or S)-4-(2,3-Dimethoxythieno[2,3-b]pyrazin-6-yl)-2-ethyl-4-oxobutanoic Acid], in test [1], the activation at 30 µM came to 116%. The compound also yielded an EC50 on full-length HAQ STING of 2.71 µM.

As to `CCC(CC(=O)c1cc2nc(OC)c(OC)cc2s1)C(=O)O` (single isomer, unassigned) [Example 12, (R or S)-4-(5,6-Dimethoxythieno[3,2-b]pyridin-2-yl)-2-ethyl-4-oxobutanoic acid], at full-length HAQ STING, the response was half-maximal at 1.75 µM (EC50).

Consider `COc1cc2nc(C(=O)CCC(=O)O)sc2cc1OC` [Example 1, 4-(5,6-Dimethoxybenzo[d]thiazol-2-yl)-4-oxobutanoic Acid], for which, in test [1], the activation at 30 µM came out at 56%. The same compound registered a concentration giving a half-maximal response (EC50) on full-length HAQ STING of 13.3 µM. `CCCC(CC(=O)c1cc2nc(OC)c(OC)cc2s1)C(=O)O` (single isomer, unassigned) [Example 14, (R or S)-2-(2-(5,6-Dimethoxythieno[3,2-b]pyridin-2-yl)-2-oxoethyl) pentanoic acid] returned a concentration for a half-maximal effect (EC50) on full-length HAQ STING of 1.39 µM. Regarding `COc1cc2nc(C(=O)CC(C)C(=O)O)sc2cc1OC` (single isomer, unassigned) [Example 2, 4-(5,6-Dimethoxy-1,3-benzothiazol-2-yl)-2-methyl-4-oxobutanoic Acid], the activation at 30 µM in test [1] stood at 94%. Further, the concentration giving a half-maximal response (EC50) at full-length HAQ STING was found to be 3.29 µM.

Take `COc1cc2cc(C(=O)CCC(=O)O)sc2nc1OC` [Example 5, 4-(5,6-Dimethoxythieno[2,3-b]pyridin-2-yl)-4-oxobutanoic Acid]: the activation at 30 µM in test [1] is 146%. On full-length HAQ STING, this compound returned a 50% effective concentration (EC50) of 5.51 µM.

Regarding `COc1cc2sc(C(=O)C[C@H](C)C(=O)O)cc2nc1Cl` [Example 10, (S)-4-(5-Chloro-6-methoxythieno[3,2-b]pyridin-2-yl)-2-methyl-4-oxobutanoic Acid], the activation at 30 µM in test [1] is 70%. A half-maximal response at full-length HAQ STING (EC50) required 0.637 µM. As to `COc1cc2sc(C(=O)C[C@H](C)C(=O)O)nc2cc1Br` [Example 3, (S)-4-(5-Bromo-6-methoxybenzo[d]thiazol-2-yl)-2-methyl-4-oxobutanoic Acid], the activation at 30 µM in test [1] came to 11%. The same compound yielded an EC50 at full-length HAQ STING of 10.6 µM. Take `CCCC(CC(=O)c1cc2nc(OC)c(OC)cc2s1)C(=O)O` (single isomer, unassigned) [Example 13, (R or S)-2-(2-(5,6-Dimethoxythieno[3,2-b]pyridin-2-yl)-2-oxoethyl) pentanoic acid]: the “percent reduction in binding of tritiated cGAMP at top concentration” value at full-length HAQ STING (at 20,000 nM (20 uM) compound, HAQ STING) was 7% @ 20,000. In the case of `COc1cc2sc(C(=O)CCC(=O)O)cc2nc1OC` [Example 6], in test [1], the activation at 30 µM came out at 107%. The compound further registered a half-maximal effective concentration (EC50) on full-length HAQ STING of 2.44 µM.

As for `COc1cc2sc(C(=O)CC(C)C(=O)O)nc2c(F)c1OC` (stereo not drawn) [Example 4, 4-(4-Fluoro-5,6-dimethoxybenzo[d]thiazol-2-yl)-2-methyl-4-oxobutanoic Acid], in test [1], the activation at 30 µM was 19%. On full-length HAQ STING, this compound registered an EC50 of 6.79 µM.

By EC50 is commonly meant the concentration giving half of the maximal effect. The low end stands for higher potency in that assay, the high end for lower potency in that assay.

The values above are taken from US11702430B2, “Aza-benzothiophene compounds as STING agonists” (Merck Sharp & Dohme LLC, priority 2018, dated 2023).
